Reference: the supplement of paper PMC10307832

How the values were obtained:
Assay in all cases: relative viability (nuclei count vs DMSO), 5 days (fraction); higher = more cells survive
NCI-H1734 = test system: NCI-H1734
Outline: (§1)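 Values are medians from duplicate plates. Each reflects relative viability, defined as the nuclei count of treated wells over that of vehicle wells. Lung cancer cell lines in 1536-well plates were pin-tool dosed one day after seeding with one drug alone or with a fixed anchor-drug dose plus five library-drug doses (not always all listed) in √10 steps, then fixed, stained and imaged at 4× after 5 days.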

NCI-H520 = test system: NCI-H520
Outline: as §1

PC-3 [JPC-3] = test system: PC-3 [JPC-3]
Outline: as §1

HCC-827 = test system: HCC-827
Outline: as §1

NCI-H661 = test system: NCI-H661
Outline: as §1

NCI-H1355 = test system: NCI-H1355
Outline: as §1

NCI-H1650 = test system: NCI-H1650
Outline: as §1

RERF-LC-KJ = test system: RERF-LC-KJ
Outline: as §1

COR-L23 = test system: COR-L23
Outline: as §1

LK-2 = test system: LK-2
Outline: as §1

EKVX = test system: EKVX
Outline: as §1

H3255 = test system: H3255
Outline: as §1

ABC-1 = test system: ABC-1
Outline: as §1

NCI-H2228 = test system: NCI-H2228
Outline: as §1

NCI-H2405 = test system: NCI-H2405
Outline: as §1

SK-MES-1 = test system: SK-MES-1
Outline: as §1

CAL-12T = test system: CAL-12T
Outline: as §1

SW 1573 = test system: SW 1573
Outline: as §1

PC-14 = test system: PC-14
Outline: as §1

HCC-15 = test system: HCC-15
Outline: as §1

NCI-H1651 = test system: NCI-H1651
Outline: as §1

NCI-H1437 = test system: NCI-H1437
Outline: as §1

NCI-H322M = test system: NCI-H322M
Outline: as §1

CC(C)Oc1cc(Nc2nc(N[C@@H](C)c3ccc(F)cn3)ncc2Cl)n[nH]1 [AZ23] + O=C(CCCCCCC(=O)Nc1ccccc1)NO [Vorinostat] (partner 1 µM)
relative viability (NCI-H1734; first compound 0.01 µM): 0.64 | relative viability (NCI-H1734; first compound 0.03162 µM): 0.88 | relative viability (NCI-H1734; first compound 0.3162 µM): 1.06 | relative viability (NCI-H520; first compound 0.01 µM): 0.794 | relative viability (NCI-H520; first compound 0.03162 µM): 0.754 | relative viability (NCI-H520; first compound 0.3162 µM): 0.609 | relative viability (PC-3 [JPC-3]; first compound 0.01 µM): 0.721 | relative viability (PC-3 [JPC-3]; first compound 0.03162 µM): 0.867 | relative viability (PC-3 [JPC-3]; first compound 0.3162 µM): 0.826 | relative viability (HCC-827; first compound 0.01 µM): 0.964 | relative viability (HCC-827; first compound 0.03162 µM): 0.866 | relative viability (HCC-827; first compound 0.3162 µM): 0.9 | relative viability (NCI-H661; first compound 0.01 µM): 0.814 | relative viability (NCI-H661; first compound 0.03162 µM): 0.769 | relative viability (NCI-H661; first compound 0.3162 µM): 0.87 | relative viability (NCI-H1355; first compound 0.01 µM): 0.672 | relative viability (NCI-H1355; first compound 0.03162 µM): 0.715 | relative viability (NCI-H1355; first compound 0.3162 µM): 0.633 | relative viability (NCI-H1650; first compound 0.01 µM): 0.441 | relative viability (NCI-H1650; first compound 0.03162 µM): 1.16 | relative viability (NCI-H1650; first compound 0.3162 µM): 0.737 | relative viability (RERF-LC-KJ; first compound 0.01 µM): 0.711 | relative viability (RERF-LC-KJ; first compound 0.03162 µM): 0.704 | relative viability (RERF-LC-KJ; first compound 0.3162 µM): 0.675 | relative viability (COR-L23; first compound 0.01 µM): 0.164 | relative viability (COR-L23; first compound 0.03162 µM): 0.498 | relative viability (COR-L23; first compound 0.3162 µM): 0.424 | relative viability (LK-2; first compound 0.01 µM): 0.22 | relative viability (LK-2; first compound 0.03162 µM): 0.216 | relative viability (LK-2; first compound 0.3162 µM): 0.3 | relative viability (EKVX; first compound 0.01 µM): 0.811 | relative viability (EKVX; first compound 0.03162 µM): 0.683 | relative viability (EKVX; first compound 0.3162 µM): 0.675 | relative viability (H3255; first compound 0.01 µM): 0.737 | relative viability (H3255; first compound 0.03162 µM): 0.791 | relative viability (H3255; first compound 0.3162 µM): 0.867 | relative viability (ABC-1; first compound 0.01 µM): 0.957 | relative viability (ABC-1; first compound 0.03162 µM): 1.15 | relative viability (ABC-1; first compound 0.3162 µM): 1.19 | relative viability (NCI-H2228; first compound 0.01 µM): 0.72 | relative viability (NCI-H2228; first compound 0.03162 µM): 0.585 | relative viability (NCI-H2228; first compound 0.3162 µM): 0.628 | relative viability (NCI-H2405; first compound 0.01 µM): 0.922 | relative viability (NCI-H2405; first compound 0.03162 µM): 1.13 | relative viability (NCI-H2405; first compound 0.3162 µM): 1.01 | relative viability (SK-MES-1; first compound 0.03162 µM): 1.22 | relative viability (SK-MES-1; first compound 0.3162 µM): 1.2 | relative viability (CAL-12T; first compound 0.03162 µM): 1.03 | relative viability (CAL-12T; first compound 0.3162 µM): 0.88 | relative viability (SW 1573; first compound 0.01 µM): 0.963 | relative viability (SW 1573; first compound 0.03162 µM): 0.881 | relative viability (SW 1573; first compound 0.3162 µM): 0.757 | relative viability (PC-14; first compound 0.01 µM): 0.284 | relative viability (PC-14; first compound 0.03162 µM): 0.874 | relative viability (PC-14; first compound 0.3162 µM): 0.905 | relative viability (HCC-15; first compound 0.01 µM): 0.921 | relative viability (HCC-15; first compound 0.03162 µM): 0.963 | relative viability (HCC-15; first compound 0.3162 µM): 0.788 | relative viability (NCI-H1651; first compound 0.01 µM): 0.524 | relative viability (NCI-H1651; first compound 0.03162 µM): 0.545 | relative viability (NCI-H1651; first compound 0.3162 µM): 0.584 | relative viability (NCI-H1437; first compound 0.01 µM): 0.981 | relative viability (NCI-H1437; first compound 0.03162 µM): 0.929 | relative viability (NCI-H1437; first compound 0.3162 µM): 0.809 | relative viability (NCI-H322M; first compound 0.01 µM): 0.674 | relative viability (NCI-H322M; first compound 0.03162 µM): 0.881 | relative viability (NCI-H322M; first compound 0.3162 µM): 0.93

C[C@@H]1CN(CC(=O)Nc2ccc3c(c2)Cc2cccc(-c4cc(=O)cc(N5CCOCC5)o4)c2S3)C[C@H](C)O1 + CC(=O)c1c(C)c2cnc(Nc3ccc(N4CCNCC4)cn3)nc2n(C2CCCC2)c1=O [Palbociclib] (partner 0.5 µM)
relative viability (NCI-H1734; first compound 0.04 µM): 0.386 | relative viability (NCI-H1734; first compound 0.1265 µM): 0.354 | relative viability (NCI-H1734; first compound 0.4 µM): 0.308 | relative viability (NCI-H1734; first compound 4 µM): 0.433 | relative viability (NCI-H520; first compound 0.04 µM): 0.219 | relative viability (NCI-H520; first compound 0.1265 µM): 0.259 | relative viability (NCI-H520; first compound 0.4 µM): 0.172 | relative viability (NCI-H520; first compound 4 µM): 0.215 | relative viability (PC-3 [JPC-3]; first compound 0.04 µM): 0.501 | relative viability (PC-3 [JPC-3]; first compound 0.1265 µM): 0.515 | relative viability (PC-3 [JPC-3]; first compound 0.4 µM): 0.535 | relative viability (PC-3 [JPC-3]; first compound 4 µM): 0.477 | relative viability (HCC-827; first compound 0.04 µM): 0.502 | relative viability (HCC-827; first compound 0.1265 µM): 0.49 | relative viability (HCC-827; first compound 0.4 µM): 0.433 | relative viability (HCC-827; first compound 4 µM): 0.442 | relative viability (NCI-H661; first compound 0.04 µM): 0.404 | relative viability (NCI-H661; first compound 0.1265 µM): 0.442 | relative viability (NCI-H661; first compound 0.4 µM): 0.387 | relative viability (NCI-H661; first compound 4 µM): 0.383 | relative viability (NCI-H1355; first compound 0.04 µM): 0.397 | relative viability (NCI-H1355; first compound 0.1265 µM): 0.4 | relative viability (NCI-H1355; first compound 0.4 µM): 0.404 | relative viability (NCI-H1355; first compound 4 µM): 0.385 | relative viability (NCI-H1650; first compound 0.04 µM): 0.376 | relative viability (NCI-H1650; first compound 0.1265 µM): 0.397 | relative viability (NCI-H1650; first compound 0.4 µM): 0.285 | relative viability (NCI-H1650; first compound 4 µM): 0.262 | relative viability (RERF-LC-KJ; first compound 0.04 µM): 1.03 | relative viability (RERF-LC-KJ; first compound 0.1265 µM): 1.05 | relative viability (RERF-LC-KJ; first compound 0.4 µM): 1.17 | relative viability (RERF-LC-KJ; first compound 4 µM): 0.818 | relative viability (COR-L23; first compound 0.04 µM): 0.294 | relative viability (COR-L23; first compound 0.1265 µM): 0.281 | relative viability (COR-L23; first compound 0.4 µM): 0.379 | relative viability (COR-L23; first compound 4 µM): 0.24 | relative viability (LK-2; first compound 0.04 µM): 0.6 | relative viability (LK-2; first compound 0.1265 µM): 0.697 | relative viability (LK-2; first compound 0.4 µM): 0.651 | relative viability (LK-2; first compound 4 µM): 0.792 | relative viability (EKVX; first compound 0.04 µM): 0.342 | relative viability (EKVX; first compound 0.1265 µM): 0.396 | relative viability (EKVX; first compound 0.4 µM): 0.308 | relative viability (EKVX; first compound 4 µM): 0.288 | relative viability (H3255; first compound 0.04 µM): 0.276 | relative viability (H3255; first compound 0.1265 µM): 0.345 | relative viability (H3255; first compound 0.4 µM): 0.268 | relative viability (H3255; first compound 4 µM): 0.305 | relative viability (ABC-1; first compound 0.04 µM): 0.376 | relative viability (ABC-1; first compound 0.1265 µM): 0.673 | relative viability (ABC-1; first compound 0.4 µM): 0.634 | relative viability (ABC-1; first compound 4 µM): 0.811 | relative viability (NCI-H2228; first compound 0.04 µM): 0.993 | relative viability (NCI-H2228; first compound 0.1265 µM): 0.743 | relative viability (NCI-H2228; first compound 0.4 µM): 0.916 | relative viability (NCI-H2228; first compound 4 µM): 0.605 | relative viability (NCI-H2405; first compound 0.04 µM): 0.564 | relative viability (NCI-H2405; first compound 0.1265 µM): 0.521 | relative viability (NCI-H2405; first compound 0.4 µM): 0.486 | relative viability (NCI-H2405; first compound 4 µM): 0.506 | relative viability (SK-MES-1; first compound 0.04 µM): 0.35 | relative viability (SK-MES-1; first compound 0.1265 µM): 0.323 | relative viability (SK-MES-1; first compound 0.4 µM): 0.309 | relative viability (SK-MES-1; first compound 4 µM): 0.302 | relative viability (CAL-12T; first compound 0.04 µM): 0.53 | relative viability (CAL-12T; first compound 0.1265 µM): 0.411 | relative viability (CAL-12T; first compound 0.4 µM): 0.44 | relative viability (CAL-12T; first compound 4 µM): 0.28 | relative viability (SW 1573; first compound 0.04 µM): 0.501 | relative viability (SW 1573; first compound 0.1265 µM): 0.337 | relative viability (SW 1573; first compound 0.4 µM): 0.393 | relative viability (SW 1573; first compound 4 µM): 0.264 | relative viability (PC-14; first compound 0.04 µM): 0.529 | relative viability (PC-14; first compound 0.1265 µM): 0.506 | relative viability (PC-14; first compound 0.4 µM): 0.568 | relative viability (PC-14; first compound 4 µM): 0.423 | relative viability (HCC-15; first compound 0.04 µM): 0.706 | relative viability (HCC-15; first compound 0.1265 µM): 0.708 | relative viability (HCC-15; first compound 0.4 µM): 0.751 | relative viability (HCC-15; first compound 4 µM): 0.678 | relative viability (NCI-H1651; first compound 0.04 µM): 0.543 | relative viability (NCI-H1651; first compound 0.1265 µM): 0.502 | relative viability (NCI-H1651; first compound 0.4 µM): 0.51 | relative viability (NCI-H1651; first compound 4 µM): 0.527 | relative viability (NCI-H1437; first compound 0.04 µM): 0.309 | relative viability (NCI-H1437; first compound 0.1265 µM): 0.282 | relative viability (NCI-H1437; first compound 0.4 µM): 0.327 | relative viability (NCI-H1437; first compound 4 µM): 0.255 | relative viability (NCI-H322M; first compound 0.04 µM): 0.421 | relative viability (NCI-H322M; first compound 0.1265 µM): 0.475 | relative viability (NCI-H322M; first compound 0.4 µM): 0.506 | relative viability (NCI-H322M; first compound 4 µM): 0.522
